From patent US20080221150A1, “Prevention of Neurodegeneration by Macrolide Antibiotics” (priority 2005, published 2008)
Entries after “also recorded” stand apart in the source; their conditions may differ.

Tests used:
[1] = system: cerebellar granule neurons (CGNs); test: Cell viability via Calcein AM fluorogenic conversion assay; conditions: for effect on staurosporine-induced decrease in viability: 1 nM bafilomycin A1 + 0.1 μM staurosporine; for chloroquine-induced decrease in viability / cell death: 1 nM macrolide + 20 μM chloroquine
Protocol: (§1) Cerebellar granule neurons (CGNs) were isolated from postnatal day 7 mice as previously described^40. CGNs were plated in poly-L-lysine coated plates at a density of 1250 cells per mm^2. 48 well plates were used for viability and caspase activity assays; 100 mm dishes were used for western blot analysis; and 4 well […] chamber slides (Agene) were used for analysis of vacuolar acidification.
(§2) CGNs were treated in vitro on day 4. […] Separate cultures of CGNs were also treated for 24 h with staurosporine (0.1 μM), in the presence or absence of BafA1 (1-10 nM final).
(§3) Cell viability (via Calcein AM fluorogenic conversion assay; Molecular Probes, Eugene, Oreg.) and caspase-3-like activity (via fluorogenic DEVD cleavage assay) were performed as previously described 40 and were expressed relative to untreated controls.

caspase-3-like activity = test: Caspase-3-like activity via fluorogenic DEVD cleavage assay in CGNs; type: cell-based, mice
Protocol: as §1, §2, §3

vacuolar ATPase = conditions: cited from earlier work
cleaved caspase-3 = test: Western blot of cleaved caspase-3 in CGN lysates; type: cell-based, mice
Protocol: as §1, §2
Cells were detached from their substrate by incubation for 5 min at 37° C. with Accutase (Innovative Cell Technologies, San Diego, Calif.). Conditioned media and cells were centrifuged (700×g, 5 min, 4° C.). The supernatant was aspirated and re-suspended with 1 ml ice-cold PBS, then centrifuged again (700×g, 5 min, 4° C.). The resultant pellet was re-suspended in lysis buffer containing 25 mM HEPES, 5 mM EDTA, 5 mM MgCl2, 1% SDS, 1% Triton X-100, 1 mM PMSF, 1% protease inhibitor cocktail and 1% phosphatase inhibitor cocktail (Sigma). Cell lysates were sonicated to shear DNA and then centrifuged (10,000 rpm, 10 min, 4° C.), and the resultant supernatant (cleared whole cell lysates) was transferred to a fresh tube. Protein levels were determined subsequently via BCA assay (Pierce). Equal amounts of protein were resolved via SDS-PAGE and transferred to PVDF. After transfer blots were cut in half at approximately 37 kDa. […] Blots were blocked for 1 h, RT (5% milk), followed by overnight incubation with primary antibody. Blots were washed with 1×TBS containing 0.1% Tween 20, then incubated with secondary antibody (goat anti-rabbit IgG, Biorad) for 1 h, RT and subsequently washed. Signal was detected using Supersignal chemiluminescence (Pierce). […] Blots were scanned for densitometric analysis using Biorad Quantity One® software.

p18 Bax = test: Western blot of p18 Bax in CGNs; type: cell-based, mice
Protocol: as §1
CGNs were treated in vitro on day 4. […]
Cells were detached from their substrate by incubation for 5 min at 37° C. with Accutase (Innovative Cell Technologies, San Diego, Calif.). Conditioned media and cells were centrifuged (700×g, 5 min, 4° C.). The supernatant was aspirated and re-suspended with 1 ml ice-cold PBS, then centrifuged again (700×g, 5 min, 4° C.). The resultant pellet was re-suspended in lysis buffer containing 25 mM HEPES, 5 mM EDTA, 5 mM MgCl2, 1% SDS, 1% Triton X-100, 1 mM PMSF, 1% protease inhibitor cocktail and 1% phosphatase inhibitor cocktail (Sigma). Cell lysates were sonicated to shear DNA and then centrifuged (10,000 rpm, 10 min, 4° C.), and the resultant supernatant (cleared whole cell lysates) was transferred to a fresh tube. Protein levels were determined subsequently via BCA assay (Pierce). […] Signal was detected using Supersignal chemiluminescence (Pierce). […] Blots were scanned for densitometric analysis using Biorad Quantity One® software.

acidic vesicles = test: Labeling of acidic vesicles in CGNs with Lysotracker Red (LTR); type: cell-based, mice
Protocol: as §1, §2
(§4) Conditioned media was removed from CGNs grown in 4 well, permanox chamber slides. LTR (0.05 μM; Molecular Probes, Eugene, Oreg.) and Calcein AM (2.5 μg/ml; Molecular Probes, Eugene, Oreg.) were prepared in Locke's Buffer and added to each well for 30 min, 37° C. After this incubation the cells were washed with Locke's Buffer and cover-slipped. Images were captured using a Carl Zeiss Axioskop microscope equipped with epifluorescence.

[2] = system: cerebellar granule neurons (CGNs); test: Viable CGNs by viability marker calcein AM during LTR labeling; type: cell-based, mice; conditions: 24 h
Protocol: as §1, §2, §4

LC3 = test: Western blot of LC3 processing (LC3-I, LC3-II) in CGN lysates; type: cell-based, mice
Protocol: as §1, §2
Cells were detached from their substrate by incubation for 5 min at 37° C. with Accutase (Innovative Cell Technologies, San Diego, Calif.). Conditioned media and cells were centrifuged (700×g, 5 min, 4° C.). The supernatant was aspirated and re-suspended with 1 ml ice-cold PBS, then centrifuged again (700×g, 5 min, 4° C.). The resultant pellet was re-suspended in lysis buffer containing 25 mM HEPES, 5 mM EDTA, 5 mM MgCl2, 1% SDS, 1% Triton X-100, 1 mM PMSF, 1% protease inhibitor cocktail and 1% phosphatase inhibitor cocktail (Sigma). Cell lysates were sonicated to shear DNA and then centrifuged (10,000 rpm, 10 min, 4° C.), and the resultant supernatant (cleared whole cell lysates) was transferred to a fresh tube. Protein levels were determined subsequently via BCA assay (Pierce). Equal amounts of protein were resolved via SDS-PAGE and transferred to PVDF. After transfer blots were cut in half at approximately 37 kDa. […] Blots were blocked for 1 h, RT (5% milk), followed by overnight incubation with primary antibody. Blots were washed with 1×TBS containing 0.1% Tween 20, then incubated with secondary antibody (goat anti-rabbit IgG, Biorad) for 1 h, RT and subsequently washed. Signal was detected using Supersignal chemiluminescence (Pierce). After detection of cleaved caspase-3, the bottom blot was stripped using Restore Western Blot stripping buffer (Pierce) then probed with rabbit anti-LC3 (provided by Uchiyama laboratory), using the same western blot protocol as described above. Blots were scanned for densitometric analysis using Biorad Quantity One® software.

in vitro = conditions: mouse
Protocol: as §1, §2, §3

Bid = test: Cleavage of Bid in CGNs; type: cell-based, mice; conditions: chloroquine; data not shown
[3] = + chloroquine 20 μM for 24 hours, wild-type CGNs
[4] = 10 nM bafilomycin A1, 24 hours, Bax deficiency
[5] = all concentrations of bafilomycin A1 tested + 20 μM chloroquine, 24 hours
[6] = bafilomycin A1 by itself, 24 hours
[7] = co-addition with 20 μM chloroquine, 24 hours
[8] = 10 nM bafilomycin A1 by itself, 24 hours
[9] = bafilomycin A1 0.3-10 nM + 20 μM chloroquine, 24 hours

## COC(=O)CC(NC(=O)OC(C)(C)C)C(=O)CF (stereo not shown) [BOC-aspartyl(Ome)-fluoromethyl ketone, reference compound]
[1]; [3]
  effect on chloroquine-induced death: did not attenuate
caspase-3-like activity; [3]
  effect on chloroquine-induced increase in caspase-3-like activity: significantly attenuate

## CO/C1=C\C(C)=C\[C@@H](C)[C@@H](O)[C@@H](C)C/C(C)=C/C=C/[C@H](OC)[C@@H]([C@@H](C)[C@@H](O)[C@H](C)[C@@]2(O)C[C@@H](O)[C@H](C)[C@@H](C(C)C)O2)OC1=O [bafilomycin A1]
[1]; 24 hours
  effect on staurosporine-induced decrease in viability: not altered
[1]; 24 hours, listed as Bafilomycin A1
  effect on staurosporine-induced decrease in viability: did not prevent the decrease in viability
[1]; 1 nM bafilomycin A1 + 20 μM chloroquine, 24 hours
  viability: 88%
[1]; 10 nM bafilomycin A1 + 0.1 μM staurosporine, 24 hours
  viability: 20%
[1]; [4]
  reduction in viability in Bax-deficient CGNs: prevented
[1]; 10-100 nM bafilomycin A1 + 20 μM chloroquine, 24 hours
  chloroquine-induced decrease in viability: still attenuated; also recorded: inhibited chloroquine-induced death
[1]; [5]
  chloroquine-induced decrease in viability: significantly attenuated
[1]; [6]
  concentrations that did not decrease viability: ≤ 1 nM
  concentrations that significantly decreased viability: ≥ 10 nM
[1]; [7]
  concentration of maximal attenuation of chloroquine-induced decrease in viability: 1 nM
Vacuolar ATPase
  concentrations reported to inhibit vacuolar ATPase: greater than 1 nM
Cleaved caspase-3; [6]
  concentration at which increase in cleaved caspase-3 was apparent: 10 nM
Cleaved caspase-3; co-treatment with 20 μM chloroquine, 24 hours
  concentrations that attenuated chloroquine-induced increase in cleaved caspase-3: ≤ 1 nM
p18 Bax; 1 nM bafilomycin A1 with chloroquine 20 μM, 24 hours
  increase in p18 Bax levels: inhibits the increase in p18 Bax levels; also recorded: dramatically attenuated
caspase-3-like activity; 1 nM bafilomycin A1 + 20 μM chloroquine, 24 hours, maximal
  reduction of chloroquine-induced caspase-3-like activity: 3 fold
caspase-3-like activity; [4]
  increase in caspase-3-like activity in Bax-deficient CGNs: prevented
caspase-3-like activity; [6]
  concentrations that did not induce caspase-3-like activity: ≤ 1 nM
  concentrations that increased caspase-3-like activity: ≥ 10 nM
caspase-3-like activity; [7]
  concentrations that reduced chloroquine-induced increase in caspase-3-like activity: 0.3 to 1 nM
Acidic vesicles; 1 nM bafilomycin A1 + 20 μM chloroquine, 24 h, versus either alone
  LTR staining: increase in LTR staining intensity
Acidic vesicles; 1 nM bafilomycin A1 by itself, 24 h
  LTR staining / vacuolar acidification: did not alter the staining pattern of LTR; also recorded: did not alter vacuolar acidification
Acidic vesicles; 10 nM bafilomycin A1, presence or absence of chloroquine, 24 h
  LTR staining / vacuolar acidification: prevented any detection of vacuolar acidification by LTR; also recorded: completely prevents LTR staining
[2]; 1 nM bafilomycin A1 + 20 μM chloroquine
  numbers of viable neurons: increased numbers of viable neurons
[2]; 1 nM bafilomycin A1 by itself
  viability by calcein AM: nor did it reduce viability
[2]; 10 nM bafilomycin A1, presence or absence of chloroquine
  numbers of viable CGNs: decreased numbers of viable CGNs
LC3; [8]
  levels of LC3-II: dramatic increase
  ratio of LC3-II/LC3-I: increase
LC3; [5]
  ratio of LC3-II to LC3-I: reduction
LC3; [9]
  chloroquine-induced levels of LC3-II: did not attenuate
  levels of LC3-I: appeared to increase
LC3; bafilomycin A1 by itself, any concentration, 24 hours
  levels of LC3-I: did not change

## CO/C1=C\C(C)=C\[C@@H](C)[C@@H](O)[C@@H](C)C/C(C)=C/C=C/[C@H](OC)[C@@H]([C@@H](C)[C@@H](O)[C@H](C)[C@@]2(O)C[C@@H](OC(=O)/C=C/C(=O)NC3=C(O)CCC3=O)[C@H](C)[C@@H](C(C)C)O2)OC1=O [bafilomycin B1]
[1]; data not shown
  chloroquine-induced decrease in viability / cell death: inhibited chloroquine induced cell death
[1]; data not shown, listed as Bafilomycin B1
  chloroquine-induced decrease in viability / cell death: attenuated

## CCN(CC)CCCC(C)Nc1ccnc2cc(Cl)ccc12 (stereo not shown) [chloroquine, reference compound]
In vitro
  viability at 8 h, 20 μM: 93%
  viability at 24 h, 20 μM: 24%
  viability at 24 h, 40 μM: 8%
Bid
  cleavage of Bid: not increased
Cleaved caspase-3; 20 μM chloroquine, 4-48 hours
  cleaved caspase-3 temporal pattern: most robust at 16 hours
p18 Bax; chloroquine 20 μM for 24 hours
  amount of p18 Bax: increased
Acidic vesicles; 20 μM chloroquine, 24 hours, surviving CGNs versus control
  LTR staining: greater intensity of LTR staining
LC3; 20 μM chloroquine, 24-48 hours, versus control
  levels of LC3-I: appeared lower
LC3; 20 μM chloroquine, 24 hours, Bax deficiency
  chloroquine-induced increase in LC3-II in Bax-deficient CGNs: did not prevent
LC3; 20 μM chloroquine, remained high through 48 hours
  time to elevation of LC3-II: ≤ 4 h

## C/C=C/[C@H]1O[C@@](O)([C@@H](C)[C@H](O)[C@H](C)[C@H]2OC(=O)/C(OC)=C/C(C)=C/[C@@H](C)[C@@H](O)[C@@H](CC)[C@@H](O)[C@H](C)C/C(C)=C/C=C/[C@@H]2OC)C[C@@H](O)[C@@H]1C [concanamycin]
[1]; data not shown
  chloroquine-induced decrease in viability / cell death: inhibited chloroquine induced cell death

## C[C@@H]1C[C@@H]([C@H](O)CC2CC(=O)NC(=O)C2)C(=O)[C@@H](C)C1 [cycloheximide, reference compound]
[1]; cycloheximide 0.1-1 mg/ml with chloroquine, data not shown
  effect on magnitude of cell death induced by chloroquine: did not alter

## CN[C@@H]1C[C@H]2O[C@@](C)([C@@H]1OC)n1c3ccccc3c3c4c(c5c6ccccc6n2c5c31)C(=O)NC4 [staurosporine, reference compound]
In vitro
  viability at 24 h, 0.1 μM: 44%
caspase-3-like activity; 0.1 μM staurosporine, data not shown
  caspase-3-like activity: significantly increases
